According to patent publication US10441588B2, “Methods and compositions for treating bacterial infection” (Curators of the University of Missouri, priority 2012, dated 2019):

Columns and labels:
MRSA [1] = test: MRSA response to antibiotics in presence of compound; conditions: 50 μM CCG-211790
P. aeruginosa [2] = test: P. aeruginosa wound infection in DIO mice; assay type: in vivo
Acinetobacter baumannii = test: Vancomycin potency against Acinetobacter baumannii
[3] = system: A. baumannii (AYE) biofilm; test: A. baumannii open wound infection mouse model; assay type: in vivo, mice; conditions: topical, 6 mg/ml in PEG, 100 μl daily
Protocol: A topical formulation (6 mg/ml in Polyehylene glycol; PEG) was tested for its in vivo efficacy on the open wound infection mouse model.

[4] = system: E. coli adhesion to human epithelial cells (Caco2); test: E. coli adhesion to Caco2 cells; assay type: cell-based; conditions: Caco-2
Protocol: FIGS. 15A and 15B show CCG-211790 (NV001) inhibited E. coli virulence. FIG. 15A is a western blot of fliC expression at different concentrations of CCG-211790 (NV001).
CCG-211790 (NV001) and a number of structural analogs inhibited the expression of the flagellin gene (fliC) (FIG. 15A) and also the bacterial adhesion to human epithelial cells (Caco2) (FIG. 15B). As summarized in Table 5, the effect of compounds on E. coli flagellin expression was also tested by incubating compounds (5 and 25 μM) with E. coli for 6 hours, flagellin expression in supernatant (IVG-00601, 607) or cell pellet (IVG-00608-006014) was examined by western and quantified.

[5] = system: S. aureus clinical strain NRS234; test: S. aureus pneumonia model; assay type: in vivo, Balb/C mice
Protocol: S. aureus is one of the major causative agents of pneumonia. CCG-211790 was tested in a pneumonia model. Balb/C mice were intra-nasally infected with 10^7 CFU S. aureus clinical strain NRS234 and treated with either 0.15 μmol CCG-211790 or DMSO two hours after infection. The mice were then treated with CCG-211790 or DMSO (control) twice a day after the day of infection for three days. […] Mice were also infected with higher dose of bacteria at 10^9 CFU treated intraperitoneally (ip) with either 0.15 μmol CCG-211790, vancomycin, combination of CCG-21790 and vancomycin, or DMSO two hours after infection. The mice were then treated twice a day after the day of infection for three days.

E. coli STEC O157:H7 = assay type: in vivo, mice
P. aeruginosa [6] = test: Ciprofloxacin potency against P. aeruginosa
[7] = system: mouse fibroblast cells (CCL-1); test: MRSA cytotoxicity on mouse fibroblast cells in vitro; assay type: cell-based
Protocol: (§1) A skin punch wound was introduced to the DIO mice and infected with 10^8 CFU MRSA. Mice were then treated locally at the wound site with ointment containing CCG-211790 (60 μg/wound) in an ointment (6% silica in cod liver oil) or ointment alone. […] Furthermore, CCG-211790 protected mouse fibroblast cells (CCL-1) from MRSA cytoxicity in vitro (FIG. 13B).

S. aureus biofilm = S. aureus biofilm inhibition, optical density, test/control; assay type: cell-based, Staphylococcus aureus; conditions: Staphylococcus aureus, growth of biofilm test/control by optical density
E. coli flagellin (fliC) = test: microbe, parasite or virus in culture; assay type: cell-based
MRSA [8] = test: MRSA growth
MRSA [9] = test: MRSA skin punch wound infection in DIO mice; assay type: in vivo, diet induced obesity (DIO) mice; conditions: 10^8 CFU MRSA; 60 μg/wound in ointment (6% silica in cod liver oil) vs ointment alone
Description: In this example, in vivo and in vitro efficacy for wound infection (against MRSA and P. aeruginosa) was investigated. Diabetic ulcer lesion is a major complication of people with diabetes and represents a form of chronic wounds. Bacteria can form biofilm in the lesions, which is recalcitrant to treatment. Therefore, diet induced obesity (DIO) mice were used as a model of obesity and insulin resistance diabetes to test the in vivo efficacy of CCG-211790 to fight wound infections.
as §1

SMILES: COc1ccc2c(c1)-c1nc(SCC(F)(F)F)n(C)c(=O)c1C(C)(C)C2 [CCG-211790, 9-methoxy-3,5,5-trimethyl-2-((2,2,2-trifluoroethyl)thio)-5,6-dihydrobenzo[h]quinazolin-4(3H)-one]
- antibiotic potency against MRSA (amoxicillin, vancomycin, clindamycin, tetracycline, erythromycin) (MRSA [1]): enhanced the antibiotic potency
- survival (P. aeruginosa [2]; female DIO mice, 10^8 CFU, 12 mg/kg CCG-211790 oral with 10 mg/kg vancomycin ip): 100%
- skin lesion size (P. aeruginosa [2]; male and female DIO mice, with vancomycin vs only vancomycin): reduced
- potency of vancomycin against Acinetobacter baumannii (Acinetobacter baumannii): enhanced the potency
- A. baumannii infected wound lesion size [3]: reduced
- bacterial adhesion to human epithelial cells (Caco2) [4]: inhibited
- bacterial counts in both lungs and spleens ([5]; 10^7 CFU intranasal, 0.15 μmol, twice a day for three days, vs DMSO): Significant reduction
- protection of hosts (survival), monotherapy ([5]; 10^9 CFU, 0.15 μmol ip): Significant protection
- survival rate, combination with vancomycin ([5]; 10^9 CFU, combination of vancomycin and CCG-211790): improved the survival rate
- survival (E. coli STEC O157:H7; […], 10 mg/kg ip twice a day): 55.6%
- infection symptoms and survival (E. coli STEC O157:H7; mouse, in vivo): improved infection symptoms and survival
- ciprofloxacin potency against P. aeruginosa (P. aeruginosa [6]): enhanced
- protection of CCL-1 cells from MRSA cytoxicity [7]: protected
- activity at 5 µM (S. aureus biofilm; 5 μM, read-out: S. aureus Biofilm Inhibition 5 μM vs. (−) Control): 38.1%
- activity at 50 µM (S. aureus biofilm; 50 μM, read-out: S. aureus Biofilm Inhibition 50 μM vs. (−) Control): 32.6%
- activity at 5 µM (E. coli flagellin (fliC); Escherichia coli, 6 h, read-out: E. coli flagellin production, Relative Level vs. Control, 5 μM): 56.9%
- activity at 25 µM (E. coli flagellin (fliC); Escherichia coli, 6 h, read-out: E. coli flagellin production, Relative Level vs. Control, 25 μM): 15.4%
- expression of the flagellin gene (fliC) (E. coli flagellin (fliC); western blot, different concentrations): inhibited
- effect on bacteria growth (MRSA [8]): little to no effect
- skin lesion size (MRSA [9]): reduce the skin lesion size
